Data from publication PMC5458211, “Mitochondrial VDAC1-based peptides: Attacking oncogenic properties in glioblastoma” (Oncotarget, 2017).

Tested on: GSC markers
Assay: Expression of GSC markers in treated tumors (IHC, immunoblot)
Format: in vivo, human U-87MG in nude mice
Details: treated tumors vs PBS/DMSO
Description: Sections were also hematoxylin-stained and visualized by microscopy. B. Tissue lysates obtained from controls and several TF-D-LP4-TTs were immunoblotted for Nestin, Sox2, NGFR, CD133, and Klf4. C. Quantitative analysis of immunoblots is shown (n=2-4). D. Immunoblot analysis of, Klf4, Sox2, Nestin and Musashi expression in U-87MG and G7 cell lines, using specific antibodies. E. Quantitative analysis of immunoblots. […] G. G7 (·) and U-87MG cells (○) (2×10^5) were incubated for 3 h with the DMSO (0.15%) or with the indicated concentration of Retro-Tf-D-LP4 peptide in serum-free growth medium at 37°C and then subjected to FITC-Annexin V/PI staining and flow cytometry analysis. H. Representative FACS analysis of DMSO- (left) and 5 μM of Retro-Tf-D-LP4- (right) treated G7 or U-87MG cells.
Formalin-fixed, paraffin-embedded sections of control and peptide-TTs were hematoxylin-eosin stained, probed with appropriate antibodies via IHC staining or immunoblotting of cells and tissue extracts.
PLGA encapsulation of the VDAC1-based minutes using an UltraMicroPump III (World Precision peptide Retro-Tf-D-LP4 Instruments, Sarasota, FL). After infusion, the needle was left in place for 1 minute before slow withdrawal. The burr
Retro-Tf-D-LP4-loaded PLGA complexes were hole was sealed using sterile bone wax, and the wound prepared by the solvent displacement method with some was closed with 5.0 nylon surgical suture. All surgical modifications, as previously reported [2 3]. Twenty procedures were performed under sterile conditions.
100% DMSO and then diluted 20-fold with sterile DDW into three groups (6 animals/group) and treated every to reach a concentration of 25 mg/ml in a final DMSO third day with DMSO (1.44%), Retro-Tf-D-LP4 (10 concentration of 5%. PLGA (50 mg) was dissolved in mg/kg) or Retro-Tf-D-LP4 (10 mg/kg) encapsulated by acetone (1 ml). Then, 105 µl of peptide were added to the PLGA. Mice were subjected to MRI (at days 20 and 29), PLGA-acetone solution. The resulting peptide-PLGA- sacrificed, and brains were excised and processed for acetone mixture was added drop-wise (0.5 ml/min) into IHC. Tumor volume was analyzed using VivoQuant 2.10 10 ml of aqueous solution containing 1% PVA (w/v). The software. These experimental protocols were approved by mixtures were stirred continuously at room temperature the Institutional Animal Care and Use Committee of Ben-until complete evaporation of the organic solvent. The Gurion University. nanoparticles were centrifuged at 15,000g (4 °C for 20 min) and the pellet was re-suspended in sterile DDW and Gel electrophoresis and immunoblotting washed two times. The resulting pellet was mixed with HBSS solution. Cells or tumor tissue were lysed using lysis buffer (50 mM Tris-HCl, pH 7.5, 150 mM NaCl, 1
Xenograft and intracranial-orthotopic mouse mM EDTA, 1.5 mM MgCl2, 10% glycerol, 1% Triton models X-100, supplemented with a protease inhibitor cocktail
(Calbiochem, UK). Cell lysates were then centrifuged at U-87MG glioblastoma cells (3 x106) were inoculated 600xg (10 min at 4°C) and samples (10-40 μg of protein) s.c. into the hind leg ﬂanks of athymic eight-week old were subjected to SDS-PAGE and immunoblotting male nude mice (Envigo). Thirteen days post-inoculation, using various primary antibodies (sources and dilutions tumor volume was measured and calculated (100-130 as detailed in supplementary Table 2), followed by mm3) and mice were randomized into three groups (5 the appropriate HRP-conjugated secondary antibodies mice/group). Each treatment substance was injected into (i.e., anti-mouse, anti-rabbit or anti-goat). Blots the established s,c. tumors using PBS containing 0.26% were developed using enhanced chemiluminescence DMSO or peptide in PBS, 0.26% DMSO/20 μM). The (Biological Industries). Band intensities were analyzed xenografts were injected 20 µl per tumor (2 points) every by densitometry using Multi Gauge software (Fujifilm) […]
two days. […]

CC[C@H](C)[C@H](NC(=O)[C@H](C)NC(=O)[C@@H](N)Cc1c[nH]cn1)C(=O)N[C@@H](Cc1ccc(O)cc1)C(=O)N1CCC[C@H]1C(=O)N[C@@H](CCCNC(=N)N)C(=O)N[C@@H](Cc1c[nH]cn1)C(=O)N[C@@H](CO)C(=O)N[C@@H](Cc1c[nH]c2ccccc12)C(=O)N[C@H](C(=O)N[C@@H](Cc1c[nH]c2ccccc12)C(=O)N[C@@H](CCC(=O)O)C(=O)N[C@H](CCCCN)C(=O)N[C@H](CCCCN)C(=O)N[C@H](CC(C)C)C(=O)N[C@H](CCC(=O)O)C(=O)N[C@@H](C(=O)N[C@H](C)C(=O)N[C@@H](C(=O)N[C@H](CC(N)=O)C(=O)N[C@H](CC(C)C)C(=O)N[C@H](C)C(=O)N[C@H](Cc1c[nH]c2ccccc12)C(=O)N[C@@H](C(=O)N[C@H](C)C(=O)NCC(=O)N[C@H](CC(N)=O)C(=O)N[C@H](CO)C(=O)N[C@H](CC(N)=O)C(=O)N[C@@H](CCCCN)C(=O)N[C@@H](Cc1c[nH]c2ccccc12)C(=O)N[C@H](C(=O)N[C@@H](Cc1c[nH]c2ccccc12)C(=O)N[C@@H](CCCCN)C(=O)O)[C@@H](C)O)[C@H](C)O)C(C)C)[C@H](C)O)[C@@H](C)O [Tf-D-LP4]
markedly lower: CD133 expression | Klf4 expression | NGFR expression | Nestin expression | S100B expression | Sox2 expression
